Data as given in paper PMC9173640, “PI Kinase-EhGEF2-EhRho5 axis contributes to LPA stimulated macropinocytosis in Entamoeba histolytica” (PLoS Pathogens, 2022).

Target: T1, EhRho5 (His-EhRho5; EhRacD) (Entamoeba histolytica, UniProt Q24817)
T1 construct: gene RACD; His-tagged (pET28a+), expressed in E. coli BL21(DE3), PCR-amplified full-length gene
Experiment: nucleotide loading, GST-RBD pulldown
Details: loaded with 10 mM EDTA; indirect read-out by Rhotekin RBD binding

T1 sequence (C4LV55 entry or part of it): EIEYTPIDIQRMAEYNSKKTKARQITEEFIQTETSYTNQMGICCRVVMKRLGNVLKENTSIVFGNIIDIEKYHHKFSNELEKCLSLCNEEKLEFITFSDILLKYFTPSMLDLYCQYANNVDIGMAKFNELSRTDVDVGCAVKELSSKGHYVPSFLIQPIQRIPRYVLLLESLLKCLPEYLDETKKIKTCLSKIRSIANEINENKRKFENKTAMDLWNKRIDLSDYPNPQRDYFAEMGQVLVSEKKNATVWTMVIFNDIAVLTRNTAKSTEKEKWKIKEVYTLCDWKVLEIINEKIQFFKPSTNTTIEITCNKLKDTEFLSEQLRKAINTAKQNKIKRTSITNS
T1 sequence (Q24817 whole entry): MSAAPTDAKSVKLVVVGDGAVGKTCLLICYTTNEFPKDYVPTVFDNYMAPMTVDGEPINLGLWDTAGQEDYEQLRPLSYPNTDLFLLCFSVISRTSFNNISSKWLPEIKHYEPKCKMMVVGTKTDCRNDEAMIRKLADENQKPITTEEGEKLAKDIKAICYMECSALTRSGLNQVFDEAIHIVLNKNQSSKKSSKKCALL

Row | Structure (SMILES) | nucleotide loading, GST-RBD pulldown
1 | Nc1nc2c(ncn2[C@@H]2O[C@H](COP(=O)(O)OP(=O)(O)O)[C@@H](O)[C@H]2O)c(=O)[nH]1 [GDP] | GDP bound inactive EhRho5 from the GMPPNP (GTP analog) bound EhRho5
2 | Nc1nc2c(ncn2[C@@H]2O[C@H](COP(=O)(O)OP(=O)(O)NP(=O)(O)O)[C@@H](O)[C@H]2O)c(=O)[nH]1 [GMPPNP] | nucleotide bound to His-EhRho5 was exchanged with excess of GMPPNP, a nonhydrolyzable GTP analogue
